Data taken from PubChem BioAssay AID1552 (Sanford-Burnham Center for Chemical Genomics, 2009).
Activity calls are given as the source filed them. How the calls were made is not given here.

target: Ubiquitin-conjugating enzyme E2 N (Homo sapiens) (UniProt P61088); assay: UBE2N binders by NMR, biophysical, purified protein (AID 1552); conditions: NMR binding to purified UBE2N
Sequence (P61088 whole entry, looked up): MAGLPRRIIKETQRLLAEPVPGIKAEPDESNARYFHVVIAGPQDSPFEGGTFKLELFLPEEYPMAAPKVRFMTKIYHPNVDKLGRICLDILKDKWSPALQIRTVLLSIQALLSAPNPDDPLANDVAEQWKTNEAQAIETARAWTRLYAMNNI

Row | Compound | Kd
1 | C=C1CCC(C2CC(=O)OC2=O)C(=O)CCC2C1CC2(C)C (stereo unspecified) | > 4 mM (inactive)
2 | NC(=O)CSc1nc2ccccc2c(=O)[nH]1 | > 4 mM (inactive)
3 | O=c1[nH]cc(S(=O)(=O)N2CCc3ccccc32)c(=O)[nH]1 | > 4 mM (inactive)
4 | S=C(NCc1ccco1)NN1CCOCC1 | > 4 mM (inactive)
5 | Cc1ccn(S(=O)(=O)c2ccc(C(C)(C)C)cc2)n1 | > 4 mM (inactive)
6 | CSc1ccccc1NC(=O)c1cccnc1 | > 4 mM (inactive)
7 | CCOC(=O)CSCC(=O)Nc1nccs1 | > 4 mM (inactive)
8 | CC1=C2[C@H]3OC(=O)[C@@H](C)[C@@H]3CC[C@@]2(C)C=CC1=O | > 4 mM (inactive)
9 | Cc1ccc(C(=O)N2CCOCC2)cc1Cl | > 4 mM (inactive)
10 | Cc1c(/C=N\n2cnnc2)c2ccccc2n1C | > 4 mM (inactive)
11 | CCC(C)C(NC)C(=O)O (stereo unspecified) | > 4 mM (inactive)
12 | Cn1c(CO)nc2ccccc21 | > 4 mM (inactive)
13 | CC12CN(CC#N)CC(C)(CN(CC#N)C1)C2=O | > 4 mM (inactive)
14 | OCc1sccc1-n1cccc1 | > 4 mM (inactive)
15 | CCOC(=O)CSc1nnc(C)c(=O)[nH]1 | > 4 mM (inactive)
16 | COC(=O)CSc1ncnc2c(C)csc12 | > 4 mM (inactive)
17 | CC1(C)C(=O)C=C[C@@]2(C)C1CC(=O)[C@]1(C)C2CC[C@@]2(C)[C@H](c3ccoc3)OC(=O)[C@H]3O[C@]321 (stereo partly specified) | > 4 mM (inactive)
18 | CC(C)=CCc1c2c(c3occ(-c4ccc(O)cc4)c(=O)c3c1O)C=CC(C)(C)O2 | > 4 mM (inactive)
19 | Cc1sc2nc(C)n(NC(N)=O)c(=O)c2c1C | > 4 mM (inactive)
20 | O=C(O)Cc1nc(-c2ccncc2)n[nH]1 | > 4 mM (inactive)
21 | CNC(=O)Nc1cccc(C(F)(F)F)c1 | > 4 mM (inactive)
22 | O=C(CN1CCOCC1)Nc1nccs1 | > 4 mM (inactive)
23 | NS(=O)(=O)c1ccc(N=Cc2cccs2)cc1 | > 4 mM (inactive)
24 | CC1=NN2C(=N)/C(=C\c3cccs3)C(=O)N=C2S1 | > 4 mM (inactive)
25 | OCC1CCCC1O (stereo unspecified) | > 4 mM (inactive)

Row | Compound | Kd
26 | O=S(=O)(c1cccc2cccnc12)N1CCOCC1 | > 4 mM (inactive)
27 | O=C(CS(=O)(=O)c1ccccc1)N1CCCCCC1 | > 4 mM (inactive)
28 | COc1ccccc1NC(N)=S | > 4 mM (inactive)
29 | CNC(=O)CC1Sc2ccccc2NC1=O (stereo unspecified) | > 4 mM (inactive)
30 | COc1cc([C@@H]2c3cc4c(cc3[C@H](OC(C)=O)[C@H]3COC(=O)[C@@H]23)OCO4)cc(OC)c1OC | > 4 mM (inactive)
31 | COC(=O)CCC(C)C1CCC2C3CCC4C[C@H](O)CC[C@]4(C)C3C[C@H](O)[C@]12C (stereo partly specified) | > 4 mM (inactive)
32 | CCCCn1c(=O)cc(O)c2ccccc21 | > 4 mM (inactive)
33 | O=C1NC(=O)/C(=C\c2ccco2)S1 | > 4 mM (inactive)
34 | Cc1nc(N)sc1C(=O)N/N=C/c1ccncc1 | > 4 mM (inactive)
35 | O=C1CNC(=O)N1Cc1ccc(F)cc1 | > 4 mM (inactive)
36 | NC1=NC(=O)/C(=C/c2ccc(O)c(Cl)c2)S1 | > 4 mM (inactive)
37 | CN(C)C(=O)CCNS(=O)(=O)c1ccccc1 | > 4 mM (inactive)
38 | O=C(NC1=NCCS1)c1csc2ccccc12 | > 4 mM (inactive)
39 | N=C1/C(=C\c2ccco2)C(=O)N=C2SC=NN12 | > 4 mM (inactive)
40 | Cc1nc(-c2cccc(N)c2)cs1 | > 4 mM (inactive)
41 | N#CCCn1ccnc1-c1ccccc1 | > 4 mM (inactive)
42 | COc1ccc(C2NC(C(=O)O)CS2)cc1 (stereo unspecified) | > 4 mM (inactive)
43 | Cc1ccc(OCC(=O)n2cnnc2N)c(C)c1 | > 4 mM (inactive)
44 | COc1ccccc1NC(=O)CCC(=O)O | > 4 mM (inactive)
45 | CC1(C)Cc2c(C#N)c(N)n(-c3ccccc3)c(=O)c2CO1 | > 4 mM (inactive)
46 | COc1ccc(C2CC(=O)c3ccc(OC)cc3O2)cc1 (stereo unspecified) | > 4 mM (inactive)
47 | NC(=O)C1CCN(C(=O)CN2CCc3ccccc32)CC1 | > 4 mM (inactive)
48 | OCC1COc2ccccc2C1 (stereo unspecified) | > 4 mM (inactive)
49 | Nc1ccc(-n2cccc2)cc1 | > 4 mM (inactive)
50 | NC1=NC(=O)/C(=C/c2cccc([N+](=O)[O-])c2)S1 | > 4 mM (inactive)

Row | Compound | Kd
51 | CN1CCN(CC(O)c2ccccc2)CC1 (stereo unspecified) | > 4 mM (inactive)
52 | O=C(O)CCC(=O)Nc1nccs1 | > 4 mM (inactive)
53 | O=C(CSc1ccccc1)N1CCC2(CC1)OCCO2 | > 4 mM (inactive)
54 | COc1c2c(cc3cc[n+](C)cc13)OCO2 | > 4 mM (inactive)
55 | CC(=O)c1cccc(NS(=O)(=O)N(C)C)c1 | > 4 mM (inactive)
56 | O=c1[nH]cc(S(=O)(=O)Nc2ccccc2)c(=O)[nH]1 | > 4 mM (inactive)
57 | C#CCCCCCCCCCCCC(O)CC(O)COC(C)=O (stereo unspecified) | > 4 mM (inactive)
58 | O=C(NN1C(=O)C2C3C=CC(C3)C2C1=O)C1CC=CCC1 (stereo unspecified) | > 4 mM (inactive)
59 | COc1ccc(/C=C2/N=C(N)SC2=O)cc1 | > 4 mM (inactive)
60 | CC(=O)Oc1ccc2c(c1C(C)C)CCC1C(C)(C)CCC[C@]21C (stereo partly specified) | > 4 mM (inactive)
61 | NCc1n[nH]c(=O)c2ccccc12 | > 4 mM (inactive)
62 | NCc1ccc(-n2cccc2)cc1 | > 4 mM (inactive)
63 | Cc1cc2cc3c(C)cc(=O)oc3c(C)c2o1 | > 4 mM (inactive)
64 | COc1ccc(-c2oc3cc(O[C@H]4O[C@H](CO)[C@@H](O)[C@H](O)[C@H]4O)c(OC)c(O)c3c(=O)c2OC)cc1O | > 4 mM (inactive)
65 | CC(C)[C@@H]1CC[C@@H](C)C[C@H]1O | > 4 mM (inactive)
66 | CN1C(=O)c2ccc(N=C3NC(=O)CS3)cc2C1=O | > 4 mM (inactive)
67 | Cc1ccc(C)n1-c1ccc(C(=O)N2CCOCC2)cc1 | > 4 mM (inactive)
68 | CC(=O)c1c(C)nc2ccccc2c1N | > 4 mM (inactive)
69 | O=C(O)c1cc(O)c2c(c1)[C@@H]([C@H]1c3cc(C(=O)O)cc(O)c3C(=O)c3c(O[C@H]4O[C@H](CO)[C@@H](O)[C@H](O)[C@H]4O)cccc31)c1cccc(O[C@H]3O[C@H](CO)[C@@H](O)[C@H](O)[C@H]3O)c1C2=O | > 4 mM (inactive)
70 | CCOC(=O)c1c(C)cc(O)cc1O | > 4 mM (inactive)
71 | CC(=O)Nc1ccc2c(c1)CCCC2=O | > 4 mM (inactive)
72 | Clc1ccc2c(N3CCNCC3)ccnc2c1 | > 4 mM (inactive)
73 | CNc1nc(N)c(C(=O)C(C)(C)C)s1 | > 4 mM (inactive)
74 | COc1ccc(Cl)cc1NC(=O)C(N)=O | > 4 mM (inactive)
75 | CC(=O)n1nc(-c2cccnc2)nc1N | > 4 mM (inactive)

Row | Compound | Kd
76 | O=C(O)C1CSC(c2ccco2)N1 (stereo unspecified) | > 4 mM (inactive)
77 | O=C(O)CSc1cccc2cccnc12 | > 4 mM (inactive)
78 | O=c1cc(-c2ccccc2)oc2cc(O)cc(O)c12 | > 4 mM (inactive)
79 | c1ccc(C2NCCc3[nH]cnc32)cc1 (stereo unspecified) | > 4 mM (inactive)
80 | O=c1[nH]c(NCCO)nnc1Cc1ccccc1 | > 4 mM (inactive)
81 | Cc1nnc(SCC(=O)Nc2ccccc2)[nH]c1=O | > 4 mM (inactive)
82 | O=C(c1cc2ccccc2o1)c1nc2c(n1O)CCCCC2 | > 4 mM (inactive)
83 | C=C1CCC2C(CC2(C)C)C(=C)CC/C1=N/O (stereo unspecified) | > 4 mM (inactive)
84 | Cc1cc(C)n(CC(=O)NC2CCCCC2)n1 | > 4 mM (inactive)
85 | NCc1ccc2c(c1)CCO2 | > 4 mM (inactive)
86 | O=C(NN1CCOCC1)c1ccccc1F | > 4 mM (inactive)
87 | CC(NC(=O)c1ccco1)c1ccc2c(c1)OCCO2 (stereo unspecified) | > 4 mM (inactive)
88 | CCCCN1C(=O)C2CC/C(=N/O)CC2C1=O (stereo unspecified) | > 4 mM (inactive)
89 | CC(C)C(=O)NC(=S)N1CCOCC1 | > 4 mM (inactive)
90 | CN1C2CC3C[C@H]1C(O3)C2O (stereo partly specified) | > 4 mM (inactive)
91 | CC1CCc2cc(F)ccc2N1C(=O)c1ccc(=O)[nH]n1 (stereo unspecified) | > 4 mM (inactive)
92 | CC1(C)N=C2C(=[N+]1[O-])CCC/C2=N\O | > 4 mM (inactive)
93 | N#Cc1c[nH]n2c(=O)cc(Cc3ccccc3)nc12 | > 4 mM (inactive)
94 | O=C1CN(c2ccccc2)CC(=O)N1 | > 4 mM (inactive)
95 | CC(=O)c1cc(C)ccc1O | > 4 mM (inactive)
96 | O=S(=O)(Cc1ccccc1)N1CCCCCC1 | > 4 mM (inactive)
97 | Cn1c(CO)nc2cc(N)ccc21 | > 4 mM (inactive)
98 | CCCCCCCCCCCCCCC(C(=O)O)C(O)(CC(=O)OC)C(=O)O (stereo unspecified) | > 4 mM (inactive)
99 | COc1ccc(-c2nc(C)sc2CC(=O)O)cc1 | > 4 mM (inactive)
100 | CS(=O)(=O)NN=C1CCCCC1 | > 4 mM (inactive)

Row | Compound | Kd
101 | O=C(Nc1cnccn1)c1ccncc1 | > 4 mM (inactive)
102 | O=S1(=O)C=C(Nc2ccccc2)CC1 | > 4 mM (inactive)
103 | CC(=O)c1cccc(NC(=O)Nc2c(C)nn(C)c2C)c1 | > 4 mM (inactive)
104 | Cc1ccc(N2C(=O)CC(Sc3ncn[nH]3)C2=O)cc1 (stereo unspecified) | > 4 mM (inactive)
105 | O=C(Cc1cccs1)Nc1nncs1 | > 4 mM (inactive)
106 | NCc1ccc2sccc2c1 | > 4 mM (inactive)
107 | NC(=O)Cn1nc2c3c(cccc3c1=O)-c1ccccc1-2 | > 4 mM (inactive)
108 | O=C(Nc1ccc(F)cc1F)c1ccco1 | > 4 mM (inactive)
109 | Cn1cnnc1Sc1ncnc(N)c1[N+](=O)[O-] | > 4 mM (inactive)
110 | Cc1ccc(/C=C2/C(=O)N=C(N)N2C)s1 | > 4 mM (inactive)
111 | NC(=O)c1ccc(-c2ccccn2)s1 | > 4 mM (inactive)
112 | CNC(=S)NCCN1CCOCC1 | > 4 mM (inactive)
113 | O=C(O)CCc1ccc2c(c1)OCO2 | > 4 mM (inactive)
114 | Cn1cc(Cl)c(C(=O)NC2CCCCCC2)n1 | > 4 mM (inactive)
115 | CCC(=O)Oc1ccc(N2C(=O)CCC2=O)cc1 | > 4 mM (inactive)
116 | O=C(O)C1=Cc2ccccc2OC1 | > 4 mM (inactive)
117 | CC(=O)N1CC2(C)CN(C(C)=O)CC(C)(C1)C2O (stereo unspecified) | > 4 mM (inactive)
118 | O=c1c2c(nc3nc(COc4ccccc4)[nH]n13)CCC2 | > 4 mM (inactive)
119 | O=C(O)c1cccc(N2C(=O)C3CC=CCC3C2=O)c1 (stereo unspecified) | > 4 mM (inactive)
120 | Cc1cc(=O)n(CC(C)C)c(O)c1C#N | > 4 mM (inactive)
121 | COC(=O)C1=C(C)N(Cc2ccco2)C(=O)C1 | > 4 mM (inactive)
